Values joined by “and” are separate entries in the source; they are usually repeats but may differ in a detail not shown here. Identical values can stand only once. Like-named read-outs stand apart in the source and are kept apart here.
How the values were obtained:
sodium channels = details: averaged literature data, cited from earlier work; for Ki: read-out: Ki−Lit; for Kd: read-out: Kr−Lit
[1] = biological target: T1, rNav1.2 sodium channels (HEK-293 cells) (Rattus norvegicus, UniProt P04775); test: 5 Hz train protocol, QPatch automated patch-clamp; type: cell-based; details: for Rev (reversibility): Rev = A5/A1 after washout; for potency estimated from few doses: −90 mV, read-out: IC50;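 on UD (use-dependence of the inhibition): UD = (A3/A4)/(A1/A2) as ratios of peak amplitudes from Figure 1A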
T1 sequence (P04775 whole entry): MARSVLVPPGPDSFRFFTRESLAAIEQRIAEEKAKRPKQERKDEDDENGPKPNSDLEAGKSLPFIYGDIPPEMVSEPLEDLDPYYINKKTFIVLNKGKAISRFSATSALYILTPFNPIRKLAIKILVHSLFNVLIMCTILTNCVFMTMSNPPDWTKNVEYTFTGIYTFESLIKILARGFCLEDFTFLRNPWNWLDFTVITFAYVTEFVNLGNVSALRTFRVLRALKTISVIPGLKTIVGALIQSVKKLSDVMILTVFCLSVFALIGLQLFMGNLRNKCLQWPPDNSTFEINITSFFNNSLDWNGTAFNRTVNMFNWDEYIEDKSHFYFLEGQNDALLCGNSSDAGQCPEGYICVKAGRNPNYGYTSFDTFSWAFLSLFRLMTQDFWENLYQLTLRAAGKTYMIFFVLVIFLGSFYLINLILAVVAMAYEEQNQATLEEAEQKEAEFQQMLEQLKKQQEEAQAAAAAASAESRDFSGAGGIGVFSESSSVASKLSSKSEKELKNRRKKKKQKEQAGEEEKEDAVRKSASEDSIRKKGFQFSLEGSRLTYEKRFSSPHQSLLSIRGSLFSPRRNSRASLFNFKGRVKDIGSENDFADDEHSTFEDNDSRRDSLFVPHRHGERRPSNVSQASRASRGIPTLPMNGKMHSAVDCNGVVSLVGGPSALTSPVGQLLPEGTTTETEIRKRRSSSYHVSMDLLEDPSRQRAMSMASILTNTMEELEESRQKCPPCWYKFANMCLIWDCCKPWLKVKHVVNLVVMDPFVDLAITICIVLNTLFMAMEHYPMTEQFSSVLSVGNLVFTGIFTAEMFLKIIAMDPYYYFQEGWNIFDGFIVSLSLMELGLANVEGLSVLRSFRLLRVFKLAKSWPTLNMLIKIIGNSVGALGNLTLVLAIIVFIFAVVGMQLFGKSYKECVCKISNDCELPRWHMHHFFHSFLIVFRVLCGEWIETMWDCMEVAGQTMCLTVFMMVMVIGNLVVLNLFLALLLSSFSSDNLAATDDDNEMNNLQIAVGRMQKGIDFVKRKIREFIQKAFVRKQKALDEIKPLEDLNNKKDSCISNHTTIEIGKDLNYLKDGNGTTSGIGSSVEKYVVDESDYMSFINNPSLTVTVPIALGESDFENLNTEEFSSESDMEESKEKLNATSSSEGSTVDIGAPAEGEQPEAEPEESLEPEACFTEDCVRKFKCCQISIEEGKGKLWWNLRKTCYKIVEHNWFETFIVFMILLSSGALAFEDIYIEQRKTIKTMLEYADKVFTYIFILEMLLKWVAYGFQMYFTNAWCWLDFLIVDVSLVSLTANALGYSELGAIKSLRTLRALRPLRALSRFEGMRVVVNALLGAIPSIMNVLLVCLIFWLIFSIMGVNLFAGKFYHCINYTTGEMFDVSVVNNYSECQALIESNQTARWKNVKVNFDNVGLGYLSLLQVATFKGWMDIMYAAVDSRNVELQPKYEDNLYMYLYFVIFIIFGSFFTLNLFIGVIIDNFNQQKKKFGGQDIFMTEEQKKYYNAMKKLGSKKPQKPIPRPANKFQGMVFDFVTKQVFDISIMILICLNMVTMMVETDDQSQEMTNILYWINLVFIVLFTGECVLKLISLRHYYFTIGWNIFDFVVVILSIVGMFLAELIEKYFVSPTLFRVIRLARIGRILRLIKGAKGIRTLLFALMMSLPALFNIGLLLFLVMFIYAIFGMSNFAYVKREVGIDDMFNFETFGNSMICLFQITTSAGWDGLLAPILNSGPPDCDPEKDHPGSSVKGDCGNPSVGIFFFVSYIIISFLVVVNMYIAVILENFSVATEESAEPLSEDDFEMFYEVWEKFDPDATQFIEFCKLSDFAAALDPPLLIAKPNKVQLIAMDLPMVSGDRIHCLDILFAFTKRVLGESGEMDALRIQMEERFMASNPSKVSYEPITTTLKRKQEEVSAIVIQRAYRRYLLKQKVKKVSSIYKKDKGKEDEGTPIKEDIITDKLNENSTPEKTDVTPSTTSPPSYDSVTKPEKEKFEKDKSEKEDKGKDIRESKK
From the text: The dynamics of the onset and offset of inhibition was monitored using 5 Hz trains of five depolarizing pulses from a holding potential of −90 mV to −10 mV. The trains were repeated every 20 s. Drugs were applied after 10 control trains and 10 trains were delivered in the presence of the drug. The drug was then washed out, and the 10 trains were repeated.
We measured inhibition (Inh; from which we calculated IC50 values as described in Materials and Methods), reversibility of inhibition (Rev) and use-dependence (UD), as well as time constant of onset (τon) and offset (τoff). The calculation of IC50, quantification of Rev and UD, and the determination of time constants are illustrated in Figure 1A. Because τon should be concentration-dependent if we assume a single binding reaction, we excluded it from the analyses. […] Comments on the interpretation of these properties (Rev, […] and UD) are in Results S1.
(§1) A)–D) Peak amplitudes of evoked currents (5 Hz trains of 5 depolarizations from −90 to −10 mV) are plotted against time. Black dots: Control. Grey dots: Drug perfusion. […] Calculation of properties of inhibition is illustrated. […] E) Calculation of Kr and Ki values from steady-state availability curves.
(§2) HEK-293 cells stably expressing rNav1.2 sodium channels were obtained from NeuroSearch (Ballerup, Denmark).
(§3) Cells were automatically prepared for application to the chips (centrifuged and washed twice, then resuspended in extracellular solution) as described previously. Composition of the extracellular solution was: (in mM): 140 NaCl, 3 KCl, 1 CaCl2, 1 MgCl2, 0.1 CdCl2, 20 TEA-Cl, 5 HEPES, adjusted to pH 7.3, Osmolality: ∼320 mOsm.
(§4) All electrophysiological experiments were conducted on Qpatch-16 or QPatch HT instruments using QPlate™ chips. For a detailed description of the instrument and the patch-clamp chips see [37], [38]. Data were sampled at a frequency of 25 kHz and filtered at 5 kHz. […] The amplifier was controlled and the data were collected by the Sophion QPatch client software. For initial data analysis the QPatch software was used. Built-in amplifiers provide an improved method for series resistance compensation. Leak subtraction (based on a standard P/n protocol) was used to subtract the capacitive component of currents.
From this protocol we extracted five parameters, as illustrated in Figure 1A. We calculated inhibition of a single “cc” concentration: Inh = (amplitudectr – amplitudedrug)/amplitudectr.

[2] = biological target: T1, rNav1.2 sodium channels (HEK-293 cells); test: steady-state inactivation protocol (availability curves), QPatch automated patch-clamp; type: cell-based
From the text: as §1
Standard steady-state inactivation protocols were used to measure the shift of steady-state availability curve caused by the drugs. Currents were evoked by a 10 ms test pulse to −10 mV, preceded by 400 ms pre-pulses from −150 to −30 mV. […] Because the inhibition at hyperpolarized potentials (Inh−150), and the shift of the availability curves (ΔV1/2) are both concentration-dependent properties, we calculated affinities to hyperpolarized and depolarized states (“resting state affinity”: Kr, and “inactivated state affinity”: Ki), which, on the other hand, are concentration-independent characteristics of individual drugs. Calculation of Kr and Ki values are described in Materials and Methods, and illustrated in Figure 1E. State-dependence (SD) was quantified as the ratio Kr/Ki.
as §2, §3, §4
Inactivated affinity (Ki) values were calculated assuming a simple four-state model of drug binding and channel gating, using two separate methods: (1) from the shift of the availability curve (ΔV1/2), the slope of the Boltzmann fit of the availability curve (k) and Kr, using the formula described by Bean, Cohen and Tsien (Ki−ΔV1/2; see Figure 1E), or (2) from the apparent affinity (Kapp) at a certain pre-pulse potential, which was calculated from the inhibition (e.g. Inh−60) as described above, and the availability (h) at the same pre-pulse potential, using the formula from Kuo and Bean (Figure 1E). […] (Arithmetic means and SEM values are given in Results S7.)

[3] = human plasma, cited from earlier work
[4] = 100 μM, 500 s assigned where irreversible
[5] = HEK293, 100 μM, −90 mV holding potential, 5 Hz train, read-out: Inh (inhibited fraction)
[6] = HEK293, calculated from Inh at single concentration 100 μM, 5 Hz train
[7] = HEK293, 100 µM, read-out: Inh (inhibited fraction) at holding potential −150 mV
[8] = arithmetic mean, 100 µM, read-out: Ki-Kapp arith
[9] = arithmetic mean, 100 µM, read-out: Ki-ΔV1/2 arith
[10] = arithmetic mean, 100 µM, read-out: Kr arith
[11] = geometric mean, from Inh at −150 mV, 100 µM, read-out: Kr (resting state affinity)
[12] = geometric mean, from apparent affinity, 100 µM, read-out: Ki−Kapp (inactivated state affinity)
[13] = geometric mean, from shift of availability curve, 100 µM, read-out: Ki−ΔV1/2 (inactivated state affinity)
[14] = 30 μM, 500 s assigned where irreversible
[15] = HEK293, calculated from Inh at single concentration 30 μM, 5 Hz train
[16] = HEK293, 30 µM, read-out: Inh (inhibited fraction) at holding potential −150 mV
[17] = arithmetic mean, 30 µM, read-out: Ki-Kapp arith
[18] = arithmetic mean, 30 µM, read-out: Ki-ΔV1/2 arith
[19] = arithmetic mean, 30 µM, read-out: Kr arith
[20] = geometric mean, from Inh at −150 mV, 30 µM, read-out: Kr (resting state affinity)
[21] = geometric mean, from apparent affinity, 30 µM, read-out: Ki−Kapp (inactivated state affinity)
[22] = geometric mean, from shift of availability curve, 30 µM, read-out: Ki−ΔV1/2 (inactivated state affinity)

## Nc1c(Br)cc(Br)cc1CN[C@H]1CC[C@H](O)CC1 [AMB, Ambroxol]
Sodium channels
  Ki: 8.17 µM
  Kd: 110 µM
[1]; 100 μM
  τon: 5.74 s
  Rev (reversibility): 0.81
[1]; 100 μM, 5 Hz train
  UD (use-dependence of the inhibition): 1.24
[1]; [4]
  τoff: 6.78 s
[1]; [5]
  inhibition at 100 µM: 51%
[1]; [6]
  potency estimated from few doses: 95.9 µM
[2]; [7]
  inhibition at 100 µM: 33%
[2]; [8]
  Ki: 18.6 µM
[2]; [9]
  Ki: 12.8 µM
[2]; [10]
  Kd: 201 µM
[2]; [11]
  Kd: 201 µM
[2]; [12]
  Ki: 17.6 µM
[2]; [13]
  Ki: 12.2 µM

## CN(C)CCC=C1c2ccccc2CCc2ccccc21 [AMI, Amitriptyline]
Sodium channels
  Ki: 0.52 µM
  Kd: 38.1 µM
[1]; 30 μM
  τon: 10.54 s
  Rev (reversibility): 0.50
[1]; 30 μM, 5 Hz train
  UD (use-dependence of the inhibition): 1.66
[1]; [14]
  τoff: 16.95 s
[1]; HEK293, 30 μM, −90 mV holding potential, 5 Hz train, read-out: Inh (inhibited fraction)
  inhibition at 30 µM: 56%
[1]; [15]
  potency estimated from few doses: 23.5 µM
[2]; 10 µM
  ΔV1/2 (shift of availability curve): −11.3 mV
[2]; 30 μM
  ΔV1/2 (shift of availability curve): −11.2 mV
[2]; 100 μM
  ΔV1/2 (shift of availability curve): −18 mV
[2]; HEK293, 10 µM, read-out: Inh (inhibited fraction) at holding potential −150 mV
  inhibition at 10 µM: 8%
[2]; [16]
  inhibition at 30 µM: 20%
[2]; [7]
  inhibition at 100 µM: 59%
[2]; arithmetic mean, 10 µM, read-out: Ki-Kapp arith
  Ki: 5.17 µM
[2]; arithmetic mean, 10 µM, read-out: Ki-ΔV1/2 arith
  Ki: 1.97 µM
[2]; arithmetic mean, 10 µM, read-out: Kr arith
  Kd: 155 µM
[2]; [17]
  Ki: 5.13 µM
[2]; [18]
  Ki: 3.78 µM
[2]; [19]
  Kd: 128 µM
[2]; [8]
  Ki: 2.08 µM
[2]; [9]
  Ki: 1.87 µM
[2]; [10]
  Kd: 72.4 µM
[2]; geometric mean, from Inh at −150 mV, 10 µM, read-out: Kr (resting state affinity)
  Kd: 134 µM
[2]; [20]
  Kd: 125 µM
[2]; [11]
  Kd: 69.6 µM
[2]; geometric mean, from apparent affinity, 10 µM, read-out: Ki−Kapp (inactivated state affinity)
  Ki: 3.34 µM
[2]; [21]
  Ki: 4.92 µM
[2]; [12]
  Ki: 2 µM
[2]; geometric mean, from shift of availability curve, 10 µM, read-out: Ki−ΔV1/2 (inactivated state affinity)
  Ki: 1.45 µM
[2]; [22]
  Ki: 3.69 µM
[2]; [13]
  Ki: 1.65 µM
[3]; as printed in each cell
  plasma conc.: 0.064 [44] µg/ml
[3]; as printed in the µg/ml cell
  plasma conc.: 0.204 µM

## CCCCN1CCCCC1C(=O)Nc1c(C)cccc1C (stereo not shown) [BPV, Bupivacaine]
Sodium channels
  Ki: 20.1 µM
  Kd: 291 µM
[1]; 100 μM
  τon: 7.95 s
  Rev (reversibility): 0.75
[1]; 100 μM, 5 Hz train
  UD (use-dependence of the inhibition): 1.62
[1]; [4]
  τoff: 16.73 s
[1]; 5 Hz train
  use-dependence (UD): high use-dependence
[1]; [5]
  inhibition at 100 µM: 60%
[1]; [6]
  potency estimated from few doses: 67.7 µM
[2]; 100 μM
  ΔV1/2 (shift of availability curve): −11.3 mV
[2]; [7]
  inhibition at 100 µM: 14%
[2]; [8]
  Ki: 8.21 µM
[2]; [9]
  Ki: 6.46 µM
[2]; [10]
  Kd: 635 µM
[2]; [11]
  Kd: 619 µM
[2]; [12]
  Ki: 7.79 µM
[2]; [13]
  Ki: 5.85 µM
[3]; as printed in each cell
  plasma conc.: 0.8 [44] µg/ml
[3]; as printed in the µg/ml cell
  plasma conc.: 2.462 µM

## O=C(NCC1CCCCN1)c1cc(OCC(F)(F)F)ccc1OCC(F)(F)F (stereo not shown) [FLC, Flecainide]
Sodium channels
  Ki: 5.55 µM
  Kd: 355 µM
[1]
  difference between Kr and IC50: no difference
[1]; 300 μM
  τoff: 64.97 s
  Rev (reversibility): 0.57
[1]; 300 μM, 3 s assigned where too short to be resolved
  τon: 20.04 s
[1]; 300 μM, 5 Hz train
  UD (use-dependence of the inhibition): 1.34
[1]; 5 Hz train
  use-dependence (UD): high
[1]; HEK293, 300 μM, −90 mV holding potential, 5 Hz train, read-out: Inh (inhibited fraction)
  inhibition at 300 µM: 82%
[1]; HEK293, calculated from Inh at single concentration 300 μM, 5 Hz train
  potency estimated from few doses: 67.6 µM
[2]; HEK293, 300 µM, read-out: Inh (inhibited fraction) at holding potential −150 mV
  inhibition at 300 µM: 82%
[2]; arithmetic mean, 300 µM, read-out: Ki-Kapp arith
  Ki: 6.1 µM
[2]; arithmetic mean, 300 µM, read-out: Ki-ΔV1/2 arith
  Ki: 9.72 µM
[2]; arithmetic mean, 300 µM, read-out: Kr arith
  Kd: 65 µM
[2]; geometric mean, from Inh at −150 mV, 300 µM, read-out: Kr (resting state affinity)
  Kd: 64.7 µM
[2]; geometric mean, from apparent affinity, 300 µM, read-out: Ki−Kapp (inactivated state affinity)
  Ki: 5.7 µM
[2]; geometric mean, from shift of availability curve, 300 µM, read-out: Ki−ΔV1/2 (inactivated state affinity)
  Ki: 7.9 µM
[2]; in words
  Kr: low Kr

## CN(C)CCCN1c2ccccc2CCc2ccccc21 [IMI, Imipramine]
Sodium channels
  Ki: 0.89 µM
  Kd: 26.5 µM
[3]; as printed in each cell
  plasma conc.: 0.2 [44] µg/ml
[3]; as printed in the µg/ml cell
  plasma conc.: 0.631 µM

## CNCCC(Oc1ccccc1OC)c1ccccc1 (stereo not shown) [NIS, Nisoxetine]
[1]; 100 μM
  τon: 20.71 s
  Rev (reversibility): 0.66
[1]; 100 μM, 5 Hz train
  UD (use-dependence of the inhibition): 1.33
[1]; [4]
  τoff: 23.41 s
[1]; [5]
  inhibition at 100 µM: 57%
[1]; [6]
  potency estimated from few doses: 75.7 µM
[2]; 100 μM
  ΔV1/2 (shift of availability curve): −6.68 mV
[2]; HEK293, read-out: Inh (inhibited fraction) at holding potential −150 mV
  inhibition at 100 µM: 34%
[2]; Ki-Kapp arith, arithmetic mean, 100 µM
  Ki: 7.63 µM
[2]; Ki-ΔV1/2 arith, arithmetic mean, 100 µM
  Ki: 19.5 µM
[2]; Ki−Kapp (inactivated state affinity), geometric mean, from apparent affinity, 100 µM
  Ki: 7.1 µM
[2]; Ki−ΔV1/2 (inactivated state affinity), geometric mean, from shift of availability curve, 100 µM
  Ki: 19.1 µM
[2]; Kr (resting state affinity), geometric mean, from Inh at −150 mV, 100 µM
  Kd: 194 µM
[2]; Kr arith, arithmetic mean, 100 µM
  Kd: 196 µM
[3]; as printed in each cell
  plasma conc.: 0.05 [46] µg/ml
[3]; as printed in the µg/ml cell
  plasma conc.: 0.159 µM

## Cc1nc2sccn2c(=O)c1CCN1CCC(=C(c2ccc(F)cc2)c2ccc(F)cc2)CC1 [RIT, Ritanserin]
[1]; 30 μM
  τon: 14.38 s
  Rev (reversibility): 0.37
[1]; 30 μM, 5 Hz train
  UD (use-dependence of the inhibition): 1.09
[1]; [14]
  τoff: 22.28 s
[1]; [15]
  potency estimated from few doses: 23.6 µM
[2]; 30 μM
  ΔV1/2 (shift of availability curve): −7.28 mV
[2]; [16]
  inhibition at 30 µM: 13%
[2]; [17]
  Ki: 6.52 µM
[2]; [18]
  Ki: 7.69 µM
[2]; [19]
  Kd: 225 µM
[2]; [20]
  Kd: 206 µM
[2]; [21]
  Ki: 6.1 µM and 6.13 µM
[2]; [22]
  Ki: 7.1 µM
[3]; as printed in each cell
  plasma conc.: 0.14 [54] µg/ml
[3]; as printed in the µg/ml cell
  plasma conc.: 0.299 µM

— paper PMC3004914, “Classification of Drugs Based on Properties of Sodium Channel Inhibition: A Comparative Automated Patch-Clamp Study” (PLoS ONE, 2010)
